Key:
[1] = tested on: E. coli; experiment: Effect of additives added to thawed competent cells on electroporation efficiency (pCMV-Script plasmid); assay type: cell-based; details: added after thawing, colonies with additive divided by colonies without
Method: Specifically, galactose (an aldohexose monosaccharide), maltose (an aldohexose disaccharide), mannitol (an aldohexose alcohol), and sorbitol (an aldohexose alcohol) additives were tested.
After two hours of freezing, competent cells were thawed and amounts varying between 0.1% and 5.0% of various sugar or sugar aldoses were added to the thawed cells. 1 μl of 10 pg/μl plasmid, pCMV-Script (Stratagene #211199) in TE buffer or water (or other low-ionic strength buffer) was added to 40 μl of the treated cells in a chilled 1.5 ml Microfuge tube. The cells were gently mixed and chilled.
The DNA-cell mixture was transferred to a chilled electroporation cuvette. The cuvette was pulsed once, using a Bio-Rad II Gene Pulsar, at 1.7 kV (kilo Volts), 200 Ω and 25 μF. The cuvette was immediately removed and 960 μl of SOC medium (2 ml of 20% glucose and 1 ml of 2M Mg per 100 ml of SOB medium) was added to resuspend the cells.
That suspension was transferred to a sterile 15-ml Falcon 2059 polypropylene tube and shaken at 225-250 rpm at 37° C. for 1 hour. We pipetted 2.5 μl of transformed cells into a 100 μl pool of SOC medium on an Amp plate (Sambrook et al. 1997). The cell/media mixture was spread over the Amp plates. The plates were incubated overnight (16-20 hours) at 37° C.

[2] = tested on: XL1-Blue cells; experiment: Effect of sorbitol added before freezing on electrotransformation efficiency (pUC18 plasmid); assay type: cell-based, E. coli; details: average of 6 values
Method: The effect of adding sugars, prior to freezing the cells, was tested for improved electroporation efficiency. Sorbitol was chosen as the first test compound.
To determine the optimal concentration of sorbitol, the above protocol was followed to produce electrocompetent bacterial cells. However, before freezing the cells, a solution of sorbitol was added such that the final concentrations of the suspension of cells varied from 0%, 1.0%, 2.0%, and 2.5%.
1 μl of 10 pg/μl plasmid, pUC18 (New England Biolabs) in TE buffer or water (or other low-ionic strength buffer), was added to 40 μl of the treated cells in a chilled 1.5 ml Microfuge tube. Transformed cells were obtained by following the above protocol. Various experiments were run to determine the efficiency of transformation. Five different preparations were tested in triplicate, and each preparation was plated in duplicate.

[3] = additive final concentration 1.0%
[4] = additive final concentration 2.0%
[5] = additive final concentration 0.75%

Question: Which results are given for `OC[C@H]1O[C@H](O[C@H]2[C@H](O)[C@@H](O)C(O)O[C@@H]2CO)[C@H](O)[C@@H](O)[C@@H]1O` (mixture of isomers) [maltose]?
Answer: Relative efficiency [1, 3]: 1.50; Relative efficiency ([1]; additive final concentration 2.5%): 3.00; Relative efficiency ([1]; additive final concentration 3.0%): 1.30; Relative efficiency ([1]; additive final concentration 4.0%): 1.50

Question: How did the Relative efficiency ([1]; additive final concentration 0.5%) turn out when `O=C[C@H](O)[C@@H](O)[C@@H](O)[C@H](O)CO` [galactose] was run?
Answer: 2.20

Question: What about the Relative efficiency [1, 3] of the same molecule?
Answer: 1.50

Question: What about the Relative efficiency [1, 4] of the same molecule?
Answer: 2.40

Question: `OC[C@@H](O)[C@@H](O)[C@H](O)[C@H](O)CO` [mannitol] was tested. Which Relative efficiency [1, 5] did it give?
Answer: 3.00

Question: What about the Relative efficiency [1, 3] of the same molecule?
Answer: 2.80

Question: What about the Relative efficiency ([1]; additive final concentration 1.25%) of the same molecule?
Answer: 3.30

Question: And the Relative efficiency [1, 4]?
Answer: 2.90

Question: What about the Relative efficiency ([1]; additive final concentration 2.20%) of the same molecule?
Answer: 2.80

Question: And the Relative efficiency ([1]; additive final concentration 2.40%)?
Answer: 1.90

Question: How did the Relative efficiency [1, 5] turn out when `OC[C@@H](O)[C@@H](O)[C@H](O)[C@@H](O)CO` [sorbitol] was run?
Answer: 2.20

Question: What about the Relative efficiency [1, 3] of the same molecule?
Answer: 2.80

Question: What about the Relative efficiency ([1]; additive final concentration 1.50%) of the same molecule?
Answer: 3.10

Question: And the Relative efficiency [1, 4]?
Answer: 1.50

Question: And the “Efficiency (cfu/ug pUC18)” value ([2]; Experiment #1, 2.0% sorbitol added before freezing)?
Answer: 1.2 × 10^10 cfu/ug pUC18

Question: And the “Efficiency (cfu/ug pUC18)” value ([2]; Experiment #1, 2.5% sorbitol added before freezing)?
Answer: 1.6 × 10^10 cfu/ug pUC18

Question: What about the “Efficiency (cfu/ug pUC18)” value ([2]; Experiment #2, 1.0% sorbitol added before freezing) of the same molecule?
Answer: 1.23 × 10^10 cfu/ug pUC18

Question: And the “Efficiency (cfu/ug pUC18)” value ([2]; Experiment #2, 2.0% sorbitol added before freezing)?
Answer: 1.66 × 10^10 cfu/ug pUC18

Question: What about the “Efficiency (cfu/ug pUC18)” value ([2]; Experiment #2, 2.5% sorbitol added before freezing) of the same molecule?
Answer: 1.48 × 10^10 cfu/ug pUC18

Question: What about the “Efficiency (cfu/ug pUC18)” value ([2]; Experiment #3, 1.0% sorbitol added before freezing) of the same molecule?
Answer: 1.03 × 10^10 cfu/ug pUC18

Question: What about the “Efficiency (cfu/ug pUC18)” value ([2]; Experiment #3, 2.0% sorbitol added before freezing) of the same molecule?
Answer: 1.23 × 10^10 cfu/ug pUC18

Question: What about the “Efficiency (cfu/ug pUC18)” value ([2]; Experiment #3, 2.5% sorbitol added before freezing) of the same molecule?
Answer: 1.33 × 10^10 cfu/ug pUC18

Question: What about the “Efficiency (cfu/ug pUC18)” value ([2]; Experiment #4, 2.0% sorbitol added before freezing) of the same molecule?
Answer: 1.29 × 10^10 cfu/ug pUC18

Question: And the “Efficiency (cfu/ug pUC18)” value ([2]; Experiment #4, 2.5% sorbitol added before freezing)?
Answer: 1.39 × 10^10 cfu/ug pUC18

Question: And the “Efficiency (cfu/ug pUC18)” value ([2]; Experiment #5, 2.0% sorbitol added before freezing)?
Answer: 1.60 × 10^10 cfu/ug pUC18

Question: And the “Efficiency (cfu/ug pUC18)” value ([2]; Experiment #5, 2.5% sorbitol added before freezing)?
Answer: 1.60 × 10^10 cfu/ug pUC18
